Data as given in US20110152166A1, “METHOD OF MODULATION OF PROTEIN PHOSPHORYLATION-DEPENDENT CONFORMATIONAL TRANSITIONS WITH LOW MOLECULAR WEIGHT COMPOUNDS” (priority 2006, published 2011).

Legend:
[1] = system: GST-S6K1-T2[Thr412Ala] in HEK 293 cells; experiment: S6K activation loop phosphorylation in transfected HEK 293 cells; assay type: cell-based, human; conditions: 200 μM, 90 minutes
Experimental: FIG. 4—Small compounds designed to bind the HM/PIF-pocket of PDK1 can block the PDK1-dependent phosphorylation and activation of substrates that require docking to the HM/PIF-pocket of PDK1. (A) Effect of compound 1 (100 and 200 μM) on PDK1 phosphorylation of its substrate S6K1. The phosphorylation reaction was performed in vitro with [γ^32P]ATP and then separated on SDS-PAGE followed by exposure to phosphorimager. The radioactive band corresponding to phosphorylated GST-56K1-T2[Thr412Glu] (S6K[412E]) is indicated. (B) PDK1 or PDK1[Val127Leu] (PDK1[V127L]) were pre-incubated with GST-[…]N-SGK1 [Ser422Asp] […] (C) The activity of S6K was measured in vitro after glutathione sepharose purification; aliquots of purified proteins were separated on SDS-PAGE and the level of activation loop phosphorylation was visualized by immunoblotting using phospho-specific antibodies that recognize the phosphorylated activation loop, followed by stripping of the membranes and re-probing with anti-GST to verify the presence of equal amounts of protein. (D) Cells overexpressing GST-56K1-T2[Thr412Glu] were treated as in (C) but S6K activity was measured in vitro after immunoprecipitation of the GST-fusion protein with anti-GST antibodies; the level of S6K expression was analysed by western-blotting of crude extracts. […]

[2] = biological target: T1, Thr221-phosphorylated S6K11-364 (Rattus norvegicus, UniProt P67999); experiment: S6K1 in vitro reconstitution kinase assay with tail peptides; assay type: biochemical
T1 construct: Purified HA-S6K1-364 was incubated with synthetic S6K1 (rat) tail peptides; made in house; host or cells: COS7, co-transfected with myc-PDK1; anti-HA immunoprecipitate
Text: We established an in vitro reconstitution assay that could test a direct activation of the AGC kinase domain by the tail phosphate and characterize its cooperation with the HM and activation loop phosphates. The deletion mutant S6K11-364, which contains the kinase domain, but lacks the region of the tail containing the tail site and the HM as well as the C-terminal autoinhibitory domain, was expressed and purified from COS7 cells, either non-phosphorylated or phosphorylated at T221 in the activation loop, achieved by co-expression with PDK1. Purified S6K11-364 was then incubated with synthetic peptides of the S6K1 tail (residues 366-395: QTPVDS^371PDDSTLSESANQVFLGFT^389YVAPSV), which were either non-phosphorylated (S371/T389), phosphorylated at the tail site (pS371/T389), phosphorylated in the HM (S371/pT389) or phosphorylated at both sites (pS371/pT389). Subsequently, the kinase activity of S6K11-364 was determined.
Kinase assays for PKB, RSK, S6K, MSK were done as described previously (Frodin et al., 2002). […] After washing with 150 mM orthophosphoric acid, [^32P]phosphate incorporated into peptide substrate was quantified in an FLA-3000 apparatus (Fujifilm). […]

T1 sequence (P67999 24-387): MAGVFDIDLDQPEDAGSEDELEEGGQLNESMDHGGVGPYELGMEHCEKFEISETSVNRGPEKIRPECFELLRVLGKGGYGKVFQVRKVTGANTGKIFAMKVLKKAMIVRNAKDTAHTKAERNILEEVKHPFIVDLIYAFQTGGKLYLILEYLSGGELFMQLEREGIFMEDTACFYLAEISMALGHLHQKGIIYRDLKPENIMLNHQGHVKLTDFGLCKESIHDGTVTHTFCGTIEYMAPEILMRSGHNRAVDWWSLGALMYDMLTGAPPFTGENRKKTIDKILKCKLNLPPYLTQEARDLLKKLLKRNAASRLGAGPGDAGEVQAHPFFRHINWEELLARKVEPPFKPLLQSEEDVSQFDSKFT

| Compound | activation loop phosphorylation of S6K1-T2[Thr412Ala] (in words) [1] | stimulation of kinase activity (in words) [2] |
| --- | --- | --- |
| O=C(O)CSC(CC(=O)c1ccc(Cl)cc1)c1ccccc1 (centres unmarked) [Compound 1] | significantly decreased |  |
| S371/T389: synthetic S6K1 tail peptide (residues 366-395), non-phosphorylated |  | did not stimulate |
